Source: PubChem BioAssay (NCI)
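Cells were grown in 96-well plates and exposed to each compound for 48 hours at five concentrations; endpoints were interpolated linearly between bracketing concentrations, or set to the highest concentration if not reached. GI50 is the concentration that inhibits growth by half. TGI: concentration producing complete growth inhibition.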

Experiments:
Assay in all cases: NCI anticancer screen, dose series, 48 h
CCRF-CEM leukemia = tested on: CCRF-CEM leukemia
HCC-2998 colon = tested on: HCC-2998 colon
IGROV1 ovarian = tested on: IGROV1 ovarian
MDA-MB-231 breast = tested on: MDA-MB-231 breast
NCI-H23 lung = tested on: NCI-H23 lung
NCI-H522 lung = tested on: NCI-H522 lung
SF-295 CNS = tested on: SF-295 CNS
SK-OV-3 ovarian = tested on: SK-OV-3 ovarian
SNB-19 CNS = tested on: SNB-19 CNS
MDA-MB-435 = tested on: MDA-MB-435

`CCCCS(=O)(=O)CCC(N)C(=O)O` (stereo not given) gave a TGI (CCRF-CEM leukemia) of over 100 µM, a TGI (HCC-2998 colon) of over 100 µM and a TGI (IGROV1 ovarian) of over 100 µM. It also gave a TGI (MDA-MB-231 breast) of over 100 µM, a TGI (NCI-H23 lung) of over 100 µM and a TGI (NCI-H522 lung) of over 100 µM. For the same compound, the TGI (SF-295 CNS) was over 100 µM, the TGI (SK-OV-3 ovarian) was over 100 µM and the TGI (SNB-19 CNS) was over 100 µM.

`O=c1[nH]c(=O)n(C2CC(O)C(CO)O2)cc1C1=NC1` (stereo not given) showed a TGI (HCC-2998 colon) of over 100 µM, a TGI (IGROV1 ovarian) of over 100 µM and a TGI (MDA-MB-231 breast) of over 100 µM. The TGI (MDA-MB-435) was over 100 µM, the TGI (NCI-H23 lung) was over 100 µM and the TGI (SF-295 CNS) was over 100 µM. It also gave a TGI (SK-OV-3 ovarian) of over 100 µM and a TGI (SNB-19 CNS) of over 100 µM.

With `CN(C)CCNC(=O)c1cccc2c1nc(-c1ccccc1)c1ccccc12` the TGI (CCRF-CEM leukemia) was 10.1 µM, the TGI (HCC-2998 colon) was 15.9 µM and the TGI (IGROV1 ovarian) was 18.2 µM. The TGI (NCI-H23 lung) was 20.1 µM, the TGI (SF-295 CNS) was 18.7 µM and the TGI (SK-OV-3 ovarian) was 19.6 µM. For the same compound, the TGI (SNB-19 CNS) was 23.8 µM.

Work on `C[C@]1(CO)CCC[C@@]2(C)C1CC[C@H]1CC3C[C@]12CC[C@]3(C)O` (stereo not given in full) yielded a TGI (HCC-2998 colon) of over 100 µM, a TGI (NCI-H23 lung) of over 100 µM and a TGI (NCI-H522 lung) of 31.1 µM. It also gave a TGI (SF-295 CNS) of over 100 µM, a TGI (SK-OV-3 ovarian) of over 100 µM and a TGI (SNB-19 CNS) of over 100 µM.

In the case of `O=CC[C@H]1CCc2ccccc2C12CCC(=O)CC2`, the TGI (CCRF-CEM leukemia) is reported as over 100 µM, the TGI (HCC-2998 colon) is reported as over 100 µM and the TGI (IGROV1 ovarian) is reported as over 100 µM. It also gave a TGI (NCI-H522 lung) of over 100 µM, a TGI (SF-295 CNS) of over 100 µM and a TGI (SK-OV-3 ovarian) of over 100 µM. It also gave a TGI (SNB-19 CNS) of over 100 µM.

Work on `CC(=O)c1ccc(NC(=O)C(=O)Nn2c(=S)[nH]c3ccccc3c2=O)cc1` yielded a TGI (HCC-2998 colon) of over 100 µM, a TGI (IGROV1 ovarian) of over 100 µM and a TGI (NCI-H23 lung) of over 100 µM. For the same compound, the TGI (NCI-H522 lung) was over 100 µM, the TGI (SF-295 CNS) was over 100 µM and the TGI (SK-OV-3 ovarian) was over 100 µM. It also gave a TGI (SNB-19 CNS) of over 100 µM.

In the case of `CCNC(=O)c1cc2c(-c3cc(C(C)(C)O)ccc3Oc3c(C)cc(F)cc3C)cn(C)c(=O)c2[nH]1`, the GI50 (CCRF-CEM leukemia) is reported as 2.21 µM, the TGI (CCRF-CEM leukemia) is reported as 23.9 µM and the GI50 (HCC-2998 colon) is reported as 1.66 µM. For the same compound, the TGI (HCC-2998 colon) was 4.03 µM, the GI50 (IGROV1 ovarian) was 1.39 µM and the TGI (IGROV1 ovarian) was 11.2 µM. It also gave a GI50 (MDA-MB-231 breast) of 1.08 µM, a TGI (MDA-MB-231 breast) of 15.9 µM and a GI50 (MDA-MB-435) of 1.41 µM. It also gave a TGI (MDA-MB-435) of 14.3 µM, a GI50 (NCI-H23 lung) of 1.89 µM and a TGI (NCI-H23 lung) of 10.7 µM. The GI50 (NCI-H522 lung) was 1.76 µM, the TGI (NCI-H522 lung) was 14.2 µM and the GI50 (SF-295 CNS) was 2.19 µM. For the same compound, the TGI (SF-295 CNS) was 11 µM, the GI50 (SNB-19 CNS) was 2.05 µM and the TGI (SNB-19 CNS) was 14.2 µM.

With `C1CCN(c2nc(=[N+]3CCCCC3)ss2)CC1` the TGI (CCRF-CEM leukemia) was over 100 µM, the TGI (HCC-2998 colon) was over 100 µM and the TGI (IGROV1 ovarian) was over 100 µM. The TGI (NCI-H23 lung) was over 100 µM, the TGI (NCI-H522 lung) was over 100 µM and the TGI (SF-295 CNS) was over 100 µM. It also gave a TGI (SK-OV-3 ovarian) of over 100 µM and a TGI (SNB-19 CNS) of over 100 µM.

`O=C(O)/C(=C/C=C/c1ccccc1)c1csc(-c2nc(/C(=C\C=C\c3ccccc3)C(=O)O)cs2)n1` gave a TGI (CCRF-CEM leukemia) of 45.6 µM, a TGI (HCC-2998 colon) of 59.7 µM and a TGI (IGROV1 ovarian) of over 100 µM. For the same compound, the TGI (SF-295 CNS) was 87.6 µM, the TGI (SK-OV-3 ovarian) was over 100 µM and the TGI (SNB-19 CNS) was 58.1 µM.

For `Cc1cc(N(CCNc2ccnc3cc(Cl)ccc23)Cc2ccco2)nc(Cl)n1`, the GI50 (HCC-2998 colon) was 1.72 µM, the TGI (HCC-2998 colon) was 3.3 µM and the GI50 (MDA-MB-231 breast) was 1.68 µM. It also gave a TGI (MDA-MB-231 breast) of 3.24 µM, a GI50 (MDA-MB-435) of 1.72 µM and a TGI (MDA-MB-435) of 3.37 µM. The GI50 (NCI-H23 lung) was 1.77 µM, the TGI (NCI-H23 lung) was 3.93 µM and the GI50 (NCI-H522 lung) was 1.75 µM. For the same compound, the TGI (NCI-H522 lung) was 3.71 µM, the GI50 (SF-295 CNS) was 1.51 µM and the TGI (SF-295 CNS) was 3 µM. It also gave a GI50 (SK-OV-3 ovarian) of 1.66 µM, a TGI (SK-OV-3 ovarian) of 3.13 µM and a GI50 (SNB-19 CNS) of 1.91 µM. For the same compound, the TGI (SNB-19 CNS) was 3.74 µM.

`N#C/C(=C\c1cc(Cl)cc(Cl)c1)c1ccccn1` showed a TGI (CCRF-CEM leukemia) of over 100 µM, a TGI (HCC-2998 colon) of over 100 µM and a TGI (IGROV1 ovarian) of over 100 µM. The TGI (NCI-H23 lung) was over 100 µM, the TGI (NCI-H522 lung) was over 100 µM and the TGI (SF-295 CNS) was over 100 µM. The TGI (SK-OV-3 ovarian) was over 100 µM and the TGI (SNB-19 CNS) was over 100 µM.
